The record followed here is ChEMBL document CHEMBL1147306, “Studies on inhibitors of skin tumor promotion, VI. Inhibitory effects of quinones on Epstein-Barr virus activation” (J Nat Prod, 1989).

Active and inactive are the calls of the source. No cut-off for these calls is given here.

Tested on in the first data set: not listed separately
The data set is described as follows: Cytotoxicity against human Raji cells assessed as cell viability at 500 molar ratio. The format is cell-based. Particulars: read-out: Activity.
For `CC(C)=CC[C@@H](O)C1=CC(=O)c2c(O)ccc(O)c2C1=O` [SHIKONIN], the viability at 500 molar ratio is 10%.
With `O=C1c2ccc3c(c2C(=O)c2cccc(O)c21)OCO3`, the viability at 500 molar ratio is over 80%.
Turning to `COc1cccc2c1C(=O)c1ccc3c(c1C2=O)OCO3`, the viability at 500 molar ratio was over 80%.
Consider `CC(=O)c1cc2c(o1)C(=O)c1ccccc1C2=O` [NAPABUCASIN], for which the viability at 500 molar ratio came to 0%.
Consider `Cc1ccc2c(n1)C(=O)c1c(O)ccc(O)c1C2=O`, for which the viability at 500 molar ratio was 60%.
Consider `COc1c(CO)c(O)cc2c1C(=O)c1ccccc1C2=O` [DAMNACANTHOL], for which the viability at 500 molar ratio was over 80%.
Take `O=C1c2ccc(O)cc2C(=O)c2ccc(O)cc21` [ANTHRAFLAVICACID]: the viability at 500 molar ratio is over 80%.
For the compound `O=C1C=CC(=O)c2cc(O)ccc21`, the viability at 500 molar ratio is 60%.
Consider `Cc1ccnc2c1C(=O)c1c(O)ccc(O)c1C2=O`, for which the viability at 500 molar ratio is 60%.

The subject of a further data set is Raji. Put plainly: Inhibition of TPA-induced EBV-early antigen activation in human Raji cells at 100 molar ratio after 48 hrs by indirect immunofluorescence technique relative to TPA. The format is cell-based. The conditions noted are these: human gammaherpesvirus 4.
For the compound `CC(C)=CC[C@@H](O)C1=CC(=O)c2c(O)ccc(O)c2C1=O` [SHIKONIN], the EBV-EA activation % of TPA control came to 15.8%.
Turning to `O=C1c2ccc3c(c2C(=O)c2cccc(O)c21)OCO3`, the EBV-EA activation % of TPA control was 53.8%.
For the compound `COc1cccc2c1C(=O)c1ccc3c(c1C2=O)OCO3`, the EBV-EA activation % of TPA control was 33%.
On the same count and under the same terms, with `CC(=O)c1cc2c(o1)C(=O)c1ccccc1C2=O` [NAPABUCASIN] the figure was 0%.
On to `Cc1ccc2c(n1)C(=O)c1c(O)ccc(O)c1C2=O`, for which the EBV-EA activation % of TPA control amounted to 43.8%.
Take `COc1c(CO)c(O)cc2c1C(=O)c1ccccc1C2=O` [DAMNACANTHOL]: the EBV-EA activation % of TPA control came out at 100%.
Turning to `O=C1c2ccc(O)cc2C(=O)c2ccc(O)cc21` [ANTHRAFLAVICACID], the EBV-EA activation % of TPA control turned out to be 89.9%.
As to `O=C1C=CC(=O)c2cc(O)ccc21`, the EBV-EA activation % of TPA control worked out at 67.2%.
On to `Cc1ccnc2c1C(=O)c1c(O)ccc(O)c1C2=O`, for which the EBV-EA activation % of TPA control was found to be 52.1%.

Tested on in the next data set: not listed separately
The data set is described as follows: Cytotoxicity against human Raji cells assessed as cell viability at 10 molar ratio. The format is cell-based. Particulars: read-out: Activity.
As to `CC(C)=CC[C@@H](O)C1=CC(=O)c2c(O)ccc(O)c2C1=O` [SHIKONIN], the viability at 10 molar ratio is over 80%.
The same measure, in the same setting: under `O=C1c2ccc3c(c2C(=O)c2cccc(O)c21)OCO3` stands over 80%; under `COc1cccc2c1C(=O)c1ccc3c(c1C2=O)OCO3`, over 80%; under `CC(=O)c1cc2c(o1)C(=O)c1ccccc1C2=O` [NAPABUCASIN], over 80%.
On to `Cc1ccc2c(n1)C(=O)c1c(O)ccc(O)c1C2=O`, for which the viability at 10 molar ratio was over 80%.
Consider `COc1c(CO)c(O)cc2c1C(=O)c1ccccc1C2=O` [DAMNACANTHOL], for which the viability at 10 molar ratio was over 80%.
Still for that read-out and setting: with `O=C1c2ccc(O)cc2C(=O)c2ccc(O)cc21` [ANTHRAFLAVICACID] the figure was over 80%; with `O=C1C=CC(=O)c2cc(O)ccc21`, over 80%; with `Cc1ccnc2c1C(=O)c1c(O)ccc(O)c1C2=O`, over 80%.

Tested on in another data set: not listed separately
The data set is described as follows: Cytotoxicity against human Raji cells assessed as cell viability at 1000 molar ratio. It counts as cell-based. Particulars: read-out: Activity.
`CC(C)=CC[C@@H](O)C1=CC(=O)c2c(O)ccc(O)c2C1=O` [SHIKONIN]: the viability at 1000 molar ratio stood at 0%.
For the compound `O=C1c2ccc3c(c2C(=O)c2cccc(O)c21)OCO3`, the viability at 1000 molar ratio is over 80%.
Take `COc1cccc2c1C(=O)c1ccc3c(c1C2=O)OCO3`: the viability at 1000 molar ratio is over 80%.
Turning to `CC(=O)c1cc2c(o1)C(=O)c1ccccc1C2=O` [NAPABUCASIN], the viability at 1000 molar ratio worked out at 0%.
Take `Cc1ccc2c(n1)C(=O)c1c(O)ccc(O)c1C2=O`: the viability at 1000 molar ratio is 10%.
`COc1c(CO)c(O)cc2c1C(=O)c1ccccc1C2=O` [DAMNACANTHOL]: the viability at 1000 molar ratio was found to be 70%.
As for `O=C1c2ccc(O)cc2C(=O)c2ccc(O)cc21` [ANTHRAFLAVICACID], the viability at 1000 molar ratio was over 80%.
For the compound `O=C1C=CC(=O)c2cc(O)ccc21`, the viability at 1000 molar ratio stood at 10%.
Take `Cc1ccnc2c1C(=O)c1c(O)ccc(O)c1C2=O`: the viability at 1000 molar ratio turned out to be 60%.

The next data set relates to Raji. Put plainly: Inhibition of TPA-induced EBV-early antigen activation in human Raji cells at 500 molar ratio after 48 hrs by indirect immunofluorescence technique relative to TPA. Particulars: human gammaherpesvirus 4. The format is cell-based.
Turning to `CC(C)=CC[C@@H](O)C1=CC(=O)c2c(O)ccc(O)c2C1=O` [SHIKONIN], the EBV-EA activation % of TPA control was found to be 0%.
For the compound `O=C1c2ccc3c(c2C(=O)c2cccc(O)c21)OCO3`, the EBV-EA activation % of TPA control is 36.5%.
For `COc1cccc2c1C(=O)c1ccc3c(c1C2=O)OCO3`, the EBV-EA activation % of TPA control stood at 32.7%.
In the case of `CC(=O)c1cc2c(o1)C(=O)c1ccccc1C2=O` [NAPABUCASIN], the EBV-EA activation % of TPA control was 0%.
Same read-out and setting: with `Cc1ccc2c(n1)C(=O)c1c(O)ccc(O)c1C2=O` the figure was 13.5%.
With `COc1c(CO)c(O)cc2c1C(=O)c1ccccc1C2=O` [DAMNACANTHOL], the EBV-EA activation % of TPA control is 91.2%.
Regarding `O=C1c2ccc(O)cc2C(=O)c2ccc(O)cc21` [ANTHRAFLAVICACID], the EBV-EA activation % of TPA control came to 78.6%.
Same read-out and setting: under `O=C1C=CC(=O)c2cc(O)ccc21` stands 0%.
Still for that read-out and setting: under `Cc1ccnc2c1C(=O)c1c(O)ccc(O)c1C2=O` stands 23.1%.

In another data set the test system is Raji. The data set is described as follows: Inhibition of TPA-induced EBV-early antigen activation in human Raji cells at 10 molar ratio after 48 hrs by indirect immunofluorescence technique relative to TPA. Particulars: human gammaherpesvirus 4. It counts as cell-based.
`CC(C)=CC[C@@H](O)C1=CC(=O)c2c(O)ccc(O)c2C1=O` [SHIKONIN]: the EBV-EA activation % of TPA control came to 31.5%.
As to `O=C1c2ccc3c(c2C(=O)c2cccc(O)c21)OCO3`, the EBV-EA activation % of TPA control was determined as 79.5%.
As for `COc1cccc2c1C(=O)c1ccc3c(c1C2=O)OCO3`, the EBV-EA activation % of TPA control worked out at 100%.
As to `CC(=O)c1cc2c(o1)C(=O)c1ccccc1C2=O` [NAPABUCASIN], the EBV-EA activation % of TPA control came out at 32.7%.
As to `Cc1ccc2c(n1)C(=O)c1c(O)ccc(O)c1C2=O`, the EBV-EA activation % of TPA control is 86%.
On the same count and under the same terms, under `COc1c(CO)c(O)cc2c1C(=O)c1ccccc1C2=O` [DAMNACANTHOL] stands 100%; under `O=C1c2ccc(O)cc2C(=O)c2ccc(O)cc21` [ANTHRAFLAVICACID], 100%.
Consider `O=C1C=CC(=O)c2cc(O)ccc21`, for which the EBV-EA activation % of TPA control amounted to 92.3%.
`Cc1ccnc2c1C(=O)c1c(O)ccc(O)c1C2=O`: the EBV-EA activation % of TPA control came out at 88.6%.

Tested on in another data set: not listed separately
Put plainly: Cytotoxicity against human Raji cells assessed as cell viability at 100 molar ratio. The conditions noted are these: read-out: Activity. It counts as cell-based.
Take `CC(C)=CC[C@@H](O)C1=CC(=O)c2c(O)ccc(O)c2C1=O` [SHIKONIN]: the viability at 100 molar ratio was 50%.
On the same count and under the same terms, under `O=C1c2ccc3c(c2C(=O)c2cccc(O)c21)OCO3` stands over 80%; under `COc1cccc2c1C(=O)c1ccc3c(c1C2=O)OCO3`, over 80%.
With `CC(=O)c1cc2c(o1)C(=O)c1ccccc1C2=O` [NAPABUCASIN], the viability at 100 molar ratio stood at 70%.
Consider `Cc1ccc2c(n1)C(=O)c1c(O)ccc(O)c1C2=O`, for which the viability at 100 molar ratio was over 80%.
Regarding `COc1c(CO)c(O)cc2c1C(=O)c1ccccc1C2=O` [DAMNACANTHOL], the viability at 100 molar ratio is over 80%.
As for `O=C1c2ccc(O)cc2C(=O)c2ccc(O)cc21` [ANTHRAFLAVICACID], the viability at 100 molar ratio was over 80%.
The same measure, in the same setting: under `O=C1C=CC(=O)c2cc(O)ccc21` stands 60%.
As for `Cc1ccnc2c1C(=O)c1c(O)ccc(O)c1C2=O`, the viability at 100 molar ratio is over 80%.

The species entered for the next data set is Mus musculus. The data set is described as follows: Displacement of [3H]TPA from TPA receptor in ICR mouse dorsal epidermis.
Settings: not given
On to `CC(C)=CC[C@@H](O)C1=CC(=O)c2c(O)ccc(O)c2C1=O` [SHIKONIN], for which the outcome was inactive.
Take `CCCCCCCCCCCCCC(=O)O[C@@H]1[C@@H](C)[C@@]2(O)[C@@H](C=C(CO)C[C@]3(O)C(=O)C(C)=C[C@@H]23)[C@@H]2C(C)(C)[C@]12OC(C)=O`: the result was Active.
Consider `O=C1c2ccc3c(c2C(=O)c2cccc(O)c21)OCO3`, for which the outcome was inactive.
For the compound `COc1cccc2c1C(=O)c1ccc3c(c1C2=O)OCO3`, the result was inactive.
With `CC(=O)c1cc2c(o1)C(=O)c1ccccc1C2=O` [NAPABUCASIN], the result was inactive.
As for `Cc1ccc2c(n1)C(=O)c1c(O)ccc(O)c1C2=O`, the result was inactive.
In the case of `Cc1ccnc2c1C(=O)c1c(O)ccc(O)c1C2=O`, the outcome was inactive.
